Measured values published in patent publication US7279324B2, “Nucleic acid encoding G-protein coupled receptor with modified DRY motif” (Duke University, priority 2001, dated 2007).
Residue numbers refer to the chain shown, from its start. pKd: −log10 of the molar value. “Also recorded” adds a separate entry of the source. Values belong to the compound of their own block, whether it stands above or below them.

Experiments:
wild type α1B-AR [1] = target: T1, wild type α1B-AR (Mesocricetus auratus, UniProt P18841); test: [3H]prazosin whole cell binding, Scatchard analysis, HEK-293 cells; design: species or system golden hamster; conditions: [3H]prazosin Scatchard, read-out: KD for NE
T1 construct: expressed in transfected cells; host or cells: HEK-293
T1 sequence (P18841 1-515): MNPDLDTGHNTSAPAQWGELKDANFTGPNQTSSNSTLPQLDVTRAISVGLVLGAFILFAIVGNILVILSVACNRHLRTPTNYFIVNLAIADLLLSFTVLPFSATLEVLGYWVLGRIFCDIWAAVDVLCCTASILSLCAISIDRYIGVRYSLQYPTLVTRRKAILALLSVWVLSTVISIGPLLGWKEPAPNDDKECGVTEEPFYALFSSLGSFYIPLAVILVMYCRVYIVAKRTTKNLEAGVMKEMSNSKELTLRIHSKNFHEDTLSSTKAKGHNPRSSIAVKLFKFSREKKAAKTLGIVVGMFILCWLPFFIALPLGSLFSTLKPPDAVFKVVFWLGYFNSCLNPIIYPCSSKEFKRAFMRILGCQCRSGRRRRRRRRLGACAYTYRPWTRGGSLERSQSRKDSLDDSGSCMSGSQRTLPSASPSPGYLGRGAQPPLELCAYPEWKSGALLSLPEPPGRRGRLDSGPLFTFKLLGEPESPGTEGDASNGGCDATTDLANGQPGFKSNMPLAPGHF
Protocol: (§4) For α1B-AR and AT1AR experiments: Transiently transfected HEK-293 cells in 10 cm^2 dishes were washed twice in cold binding buffer (MEM+2% bovine serum albumin [BSA]), incubated for 1 hour at room temperature in binding buffer with varying concentrations of [^3H]prazosin (0.25 nM–8 nM), and washed three times in cold binding buffer to remove unbound ligand. Cell bound [^3H]prazosin was measured using a scintillation counter. Nonspecific binding was determined in the presence of 1000-fold molar excess of phentolamine (10 μM). For binding assays done to measure the effect of the co-expression of dynamin(K44A) or the addition of phentolamine in FIG. 14, a fixed concentration of 8 nM [^3H]prazosin was used.

wild type α1B-AR [2] = target: T1, wild type α1B-AR; test: [3H]inositol phosphate accumulation in HEK-293 cells; type: cell-based, golden hamster; conditions: 10 μM NE, 30 min., vs absence of agonist
Protocol: (§5) Inositol Phosphate Determination—Transiently transfected HEK-293 cells in 10 cm^2 dishes were plated onto 12-well plates (Falcon) coated with 25 mg/ml poly-D-lysine (Sigma) and incubated overnight in MEM+10% FBS (fetal bovine serum) at 37° C. To assay for inositol phosphate production, cells were incubated overnight at 37° C. in labeling media (1 μCi/0.5 ml/well of [^3H]inositol in MEM+5% fetal bovine serum). Cells were washed with MEM, 20 mM HEPES, pH 7.4, 20 mM LiCl for 5 minutes at 37° C. and then treated with agonist.

α1B-AR R143A = target: T2, α1B-AR R143A (Mesocricetus auratus, UniProt P18841, R143A); test: [3H]prazosin whole cell binding, Scatchard analysis, HEK-293 cells; design: species or system golden hamster; conditions: [3H]prazosin Scatchard, similar to wild type, read-out: KD for NE
T2 construct: expressed in transfected cells; host or cells: HEK-293
T2 sequence (P18841 1-515 R143A): T1 sequence (P18841 1-515) with R143A
Protocol: as §4

wild type α1B-AR [3] = target: T1, wild type α1B-AR; test: βarrestin-GFP translocation in HEK-293 cells; type: cell-based, golden hamster; conditions: 10 μM NE
Protocol: (§1) Cell Culture and Transfection—For V2R experiments: HEK-293 cells were grown in Eagle's minimal essential medium with Earle's salt (MEM) supplemented with 10% fetal bovine serum and a 1:100 dilution of penicillin/streptomycin (Sigma Chemicals, St. Louis, Mo.). Cells were transiently transfected with plasmid cDNA using a modified calcium phosphate co-precipitation method as described in Barak et al., 1997, Mol. Pharmacol., 51:177–84. For α1B-AR and AT1AR experiments: Cells were transiently transfected in 10 cm^2 dishes (Falcon) with 1 μg receptor or GRK plasmid cDNA in pCDNA3.1(−) using above modified calcium phosphate transfection coprecipitation method for inositol phosphate and binding assays. For confocal microscopy, cells were transiently transfected in collagen (Sigma) coated 35 mm^2 glass bottom confocal dishes (MatTek, Ashland, Mass.) with Lipofectamine®2000 and Opti-MEM media (Life Technologies) using a standard method (Ciccarone, V., et al., 1999, Focus 21.2, 54–55). Cells for confocal microscopy were transfected with 30 ng of βarrestin or receptor plasmid cDNA in pEGFP and 250 ng of dynamin(K44A), GRK, or receptor in pcDNA3.1/zeo.
(§2) Confocal Microscopy—HEK-293 cells were plated on the day following transfection onto collagen (Sigma Chemical, St. Louis, Mo.) treated 35 mm^2 glass-bottomed culture dishes. […]

α1B-AR R143 mutants [4] = test: βarrestin-GFP translocation in HEK-293 cells; type: cell-based, golden hamster; conditions: 10 μM NE (data not shown)
Protocol: as §1, §2

α1B-AR R143 mutants [5] = test: [3H]inositol phosphate accumulation in HEK-293 cells; type: cell-based, golden hamster; conditions: 10 μM NE; R143 substituted with Ala, Glu, His or Asn
Protocol: as §5

wild type α1B-AR-GFP = target: T3, wild type α1B-AR-GFP (Mesocricetus auratus, UniProt P18841); test: Receptor-GFP localization by confocal microscopy in HEK-293 cells; type: cell-based, golden hamster
T3 construct: expressed in transfected cells; host or cells: HEK-293
T3 sequence (P18841 1-515): T1 sequence (P18841 1-515)
Protocol: as §1
(§3) Confocal Microscopy—HEK-293 cells were plated on the day following transfection onto collagen (Sigma Chemical, St. Louis, Mo.) treated 35 mm^2 glass-bottomed culture dishes. Confocal microscopy was performed with a Zeiss laser-scanning microscope (LSM-510). GFP images were collected using the 488 nm argon excitation and a 505 nm long pass filter. For α1B-AR and AT1AR experiments: HEK-293 cells were transiently transfected in 35 mm^2 confocal dishes. Cells were stimulated with 10 μM NE or 1 μM AngII and incubated at 37° C. for 30 minutes before viewing. Alternatively, cells were cultured overnight at 37° C. in 10 μM phentolamine or 1 μM L158,809. Confocal microscopy was performed at 100× magnification with a Zeiss laser-scanning microscope (LSM-510). GFP and FITC images were collected using 488-nm excitation and a 505-nm long-pass filter.

wild type AT1AR-GFP = target: T4, wild type AT1AR-GFP (Rattus norvegicus, UniProt P25095); test: as above; type: cell-based; conditions: 1 μM AngII
T4 construct: expressed in transfected cells; host or cells: HEK-293
T4 sequence (P25095 1-359): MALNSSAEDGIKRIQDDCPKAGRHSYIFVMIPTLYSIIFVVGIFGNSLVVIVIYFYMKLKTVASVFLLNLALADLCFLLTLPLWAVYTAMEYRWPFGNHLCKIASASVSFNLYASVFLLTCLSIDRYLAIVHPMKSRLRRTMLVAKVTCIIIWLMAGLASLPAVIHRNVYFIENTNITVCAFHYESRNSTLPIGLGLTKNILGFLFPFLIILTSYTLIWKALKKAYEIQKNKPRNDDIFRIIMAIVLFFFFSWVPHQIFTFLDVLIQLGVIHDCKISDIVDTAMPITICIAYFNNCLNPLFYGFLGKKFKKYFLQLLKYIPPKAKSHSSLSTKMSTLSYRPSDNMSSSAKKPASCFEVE
Protocol: as §1, §2

AT1AR R126H [6] = target: T5, AT1AR R126H (Rattus norvegicus, UniProt P25095, L81C/R126H/S109T); test: βarrestin-GFP translocation in HEK-293 cells; type: cell-based; conditions: 1 μM AngII
T5 construct: expressed in transfected cells; host or cells: HEK-293
T5 sequence (P25095 1-359 L81C/S109T/R126H): T4 sequence (P25095 1-359) with L81C, S109T, R126H
Protocol: as §1, §2

wild type AT1AR = target: T6, wild type AT1AR (Rattus norvegicus, UniProt P25095); test: βarrestin-GFP translocation in HEK-293 cells; type: cell-based; conditions: 1 μM AngII
T6 construct: expressed in transfected cells; host or cells: HEK-293
T6 sequence (P25095 1-359): T4 sequence (P25095 1-359)
Protocol: as §1, §2

AT1AR R126H [7] = target: T5, AT1AR R126H; test: [3H]inositol phosphate accumulation in HEK-293 cells; type: cell-based; conditions: stimulated with AngII (1 μM, 1 μg elsewhere in the source)
Protocol: Inositol Phosphate Determination—Transiently transfected HEK-293 cells in 10 cm^2 dishes were plated onto 12-well plates (Falcon) coated with […] poly-D-lysine (Sigma) and incubated overnight in MEM+10% FBS (fetal bovine serum) at 37° C. To assay for inositol phosphate production, cells were incubated overnight at 37° C. in labeling media (1 μCi/0.5 ml/well of [^3H]inositol in MEM+5% fetal bovine serum). Cells were washed with MEM, 20 mM HEPES, pH 7.4, 20 mM LiCl for 5 minutes at 37° C. and then treated with agonist. Total inositol phosphate was extracted and separated as previously described in Cotecchia, S., et al., 1992, J. Biol. Chem. 267: 1633–1639.

AT1AR R126H-GFP = target: T7, AT1AR R126H-GFP (Rattus norvegicus, UniProt P25095, L81C/R126H/S109T); test: Receptor-GFP localization by confocal microscopy in HEK-293 cells; type: cell-based; conditions: cultured in 1 μM L158,809, no agonist
T7 construct: expressed in transfected cells; host or cells: HEK-293
T7 sequence (P25095 1-359 L81C/S109T/R126H): T4 sequence (P25095 1-359) with L81C, S109T, R126H
Protocol: as §1, §2

mock = test: Whole cell cAMP accumulation in HEK-293 cells; type: cell-based; conditions: 2.5 μM AVP for 15 min., mean±SD, n=3
α1B-AR R143E-GFP [8] = target: T8, α1B-AR R143E-GFP (Mesocricetus auratus, UniProt P18841, R143E); test: Plasma membrane receptor expression by whole cell [3H]prazosin binding; type: cell-based, golden hamster; conditions: cultured in 10 μM phentolamine at 37° C. overnight; 8 nM [3H]prazosin
T8 construct: expressed in transfected cells; host or cells: HEK-293
T8 sequence (P18841 1-515 R143E): T1 sequence (P18841 1-515) with R143E
Protocol: as §4

α1B-AR R143E-GFP [9] = target: T8, α1B-AR R143E-GFP; test: Receptor-GFP localization by confocal microscopy in HEK-293 cells; type: cell-based, golden hamster; conditions: cultured in 10 μM phentolamine at 37° C. overnight, no agonist
Protocol: as §1, §3

- pKd (wild type α1B-AR [1]): 8.46 to 8.82
- increase of [3H]-IP accumulation (wild type α1B-AR [2]): 6 fold
- pKd (α1B-AR R143A): 8.46 to 8.82
Compound: NC[C@H](O)c1ccc(O)c(O)c1 [NE, Norepinephrine]
- distribution of βarrestin-GFP (wild type α1B-AR [3]): rapid translocation of βarrestin-GFP to the plasma membrane
- distribution of βarrestin-GFP (α1B-AR R143 mutants [4]): enhances this translocation
- agonist-induced IP response (α1B-AR R143 mutants [5]): significantly impaired ability to mediate an agonist-induced IP response
- distribution of receptor-GFP (wild type α1B-AR-GFP; 10 μM NE, 30 minutes at 37° C.): loss of plasma membrane expression and the redistribution of the receptor to endocytic vesicles

Compound: angiotensin II [AngII]
- distribution of receptor-GFP (wild type AT1AR-GFP): internalization of the receptor into endocytic vesicles
- distribution of βarrestin-GFP (AT1AR R126H [6]): enhanced distribution of βarrestin-GFP into endocytic vesicles
- distribution of βarrestin-GFP (wild type AT1AR): redistribution of the βarrestin-GFP into endocytic vesicles
- [3H]-IP accumulation / signaling compared to stimulated wild type AT1AR (AT1AR R126H [7]): slight impairment of signaling; also recorded: levels identical to HEK cells transfected with wild type AT1AR

Compound: CCc1nc2c(C)cc(C)nc2n1Cc1ccc(-c2ccccc2-c2nnn[nH]2)cc1 [L158,809, 2-ethyl-5,7-dimethyl-3-[[2′-(1H-tetrazol-5-yl)[1,1′-biphenyl]-4-yl]methyl]-3H-Imidazo[4,5-b]pyridine]
- distribution of receptor-GFP (AT1AR R126H-GFP): reversal of the receptor localization back to the plasma membrane; also recorded: redistribution of the receptor back to the plasma membrane

Compound: NC(=O)CC[C@@H]1NC(=O)[C@H](Cc2ccccc2)NC(=O)[C@H](Cc2ccc(O)cc2)NC(=O)[C@@H](N)CSSC[C@@H](C(=O)N2CCC[C@H]2C(=O)N[C@@H](CCCN=C(N)N)C(=O)NCC(N)=O)NC(=O)[C@H](CC(N)=O)NC1=O [AVP, Arginine vasopressin]
- stimulated cAMP response (mock): 0.017±0.006 (counts of [^3H]cAMP per min. per well)/(counts of [^3H]adenine uptake per minute per well)

Compound: Cc1ccc(N(CC2=NCCN2)c2cccc(O)c2)cc1 [phentolamine]
- plasma membrane receptor expression (whole cell [3H]prazosin binding) (α1B-AR R143E-GFP [8]): increases to the level of the wild type receptor
- distribution of receptor-GFP (α1B-AR R143E-GFP [9]): complete reversal; also recorded: redistribution of the α1B-AR R143E-GFP from endosomes to the plasma membrane
- distribution of receptor-GFP (wild type α1B-AR-GFP; cultured in 10 μM phentolamine at 37° C. overnight): no alteration in the expression of the receptor at the plasma membrane; also recorded: no effect on the distribution of the wild type α1B-AR-GFP
